Results: US20090233958A1, “(+)-BELOXEPIN AND METHODS FOR ITS SYNTHESIS AND USE” (priority 2008, published 2009)
pIC50: −log10 of the molar value. Like-named read-outs stand apart in the source and are kept apart here.

Columns and labels:
L5 SNL rats = experiment: L5-Single Nerve Ligation model of neuropathic pain, tactile allodynia (von Frey); format: in vivo, rat; conditions: for antiallodynic effect: 8 days post surgery, 30 min post treatment, FIG. 1; for antiallodynic effect over time: tested 30, 60, 120, 240 min
Method: Protocol. The antiallodynic activity of (+)- and (−)-beloxepin were tested in vivo using the L5-Single Nerve Ligation model of non-nociceptive neuropathic pain as described in LaBuda & Little, 2005, J. Neurosci. Methods 144:175-181. The test animals were placed in a Plexiglas chamber (10 cm×20 cm×25 cm) and habituated for 15 minutes. The chamber was positioned on top of a mesh screen so that von Frey monofilaments could be presented to the plantar surface of both hindpaws. Measurement of tactile sensitivity for each hind paw were obtained using the up/down method (Dixon, 1980, Annu. Rev. Pharmacol. Toxicol. 20:441-462) with seven Frey monofilaments (0.4, 1, 2, 4, 6, 8 and 15 grams). Each trial started with a von Frey force of 2 grams delivered to the right hind paw for approximately 1-2 seconds and then the left hind paw. If there was no withdrawal response, the next higher force was delivered. If there was a response, the next lower force was delivered. This procedure was performed until no response was made at the highest force (15 grams) or until four stimuli were administered following the initial response. The 50% paw withdrawal threshold for each paw was calculated using the following formula: [Xth]log=[vFr]log+ky, where [vFr] is the force of the last von Frey used, k=0.2249 which is the average interval (in log units) between the von Frey monofilaments, and y is a value that depends upon the pattern of withdrawal responses (Dixon, 1980, supra). […] Testing for tactile sensitivity was performed twice and the mean 50% withdrawal value assigned as the tactile sensitivity for the right and left paws for each animal.
Results. The antiallodynic effects produced by (+)-beloxepin (30 mg/kg IP) and (−)-beloxepin (30 mg·kg IP) in L5 SNL rats 8 days post surgery are illustrated in FIG. 1. In this experiment, at 8 days post surgery, rats were treated with vehicle or beloxepin enantiomers (30 mg/kg IP) and tested for tactile allodynia at 30 min post treatment. […] No side effects were observed following treatment with either enantiomer.
The antiallodynic effects produced by (+)-beloxepin (30 mg/kg IP) in L5 SNL rats 14 days post surgery are illustrated in FIG. 2. In this experiment, at 14 days post surgery, rats were treated with vehicle or (+)-beloxepin and tested for tactile allodynia at 30, 60, 120 and 240 min post treatment. Vehicle treated rats were tested at 30 min post treatment.
Protocol. A time course experiment was performed with (−)-beloxepin (60 mg/kg PO) in L5 SNL rats at 7 days post-surgery. Rats were tested at 30, 60, 120, and 240 minutes post-drug.
Protocol. A time course experiment was also performed with (+)-beloxepin (60 mg/kg PO) in L5 SNL rats at 14 days post-surgery. Rats were tested at 30, 60, 120, and 240 minutes post-drug.

[1] = test system: rat hindpaw incision model; experiment: Rat hindpaw incision model of post-operative pain, tactile allodynia; format: in vivo; conditions: 30 mg/kg IP, 24 hours post-surgery, tested 30, 60, 120, 240 min
Method: Protocol. A time course experiment was also performed with (−)-beloxepin in the hindpaw incision model. At 24 hours post-surgery, rats received vehicle or (−)-beloxepin (30 mg/kg IP). Rats were tested for tactile allodynia at 30, 60, 120 and 240 minutes after administration of (−)-beloxepin.
Protocol. Another time course experiment was performed with (+)-beloxepin in the hindpaw incision model. At 24 hours post-surgery, rats received vehicle or (+)-beloxepin (30 mg/kg IP). Rats were tested for tactile allodynia at 30, 60, 120 and 240 minutes after administration of (+)-beloxepin.

[2] = test system: rat 50° C. hot plate model; experiment: Rat 50° C. hot plate assay; format: in vivo; conditions: for antinociceptive activity: 30 mg/kg IP, 30, 60 and 120 minutes after treatment
Method: Protocol. Rats were treated with vehicle, 30 mg/kg IP of (−)-beloxepin, or 30 mg/kg IP of (+)-beloxepin and then were placed on a hot plate (50° C.) 30, 60, or 120 minutes after administration of the vehicle or beloxepin enantiomer. Rats treated with 3 mg/kg SC of morphine and tested 30 min post-treatment were used as a positive control in these experiments.

NET = target: T1, NET (Rattus norvegicus, UniProt Q63380); experiment: NE uptake inhibition assay, rat hypothalamus synaptosomes; format: biochemical; conditions: read-out: NET IC50 (norepinephrine reuptake inhibition)
T1 construct: from tissue; host or cells: rat hypothalamus synaptosomes

[3] = test system: noradrenergic, histaminergic and cholinergic receptors; conditions: Sperling & Demling 1997; cited from earlier work
5HT2C receptor = target: T2, 5HT2C receptor (Homo sapiens, UniProt P28335); conditions: Claghorn & Lesem 1996; cited from earlier work
T2 sequence (P28335 33-458): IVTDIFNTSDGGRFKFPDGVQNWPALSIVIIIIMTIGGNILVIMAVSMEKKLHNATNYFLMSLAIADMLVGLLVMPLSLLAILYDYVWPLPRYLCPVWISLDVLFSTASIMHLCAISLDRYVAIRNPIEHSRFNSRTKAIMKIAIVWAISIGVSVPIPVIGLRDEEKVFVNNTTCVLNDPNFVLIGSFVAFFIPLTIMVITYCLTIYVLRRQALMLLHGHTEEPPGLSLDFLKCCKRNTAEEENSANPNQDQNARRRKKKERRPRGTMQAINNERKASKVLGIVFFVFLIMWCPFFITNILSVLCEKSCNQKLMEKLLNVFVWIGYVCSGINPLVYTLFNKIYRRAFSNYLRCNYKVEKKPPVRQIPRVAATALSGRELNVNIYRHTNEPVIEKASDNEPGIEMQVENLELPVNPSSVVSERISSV

[4] = test system: animal models of depression; conditions: cited from earlier work
REM sleep = conditions: 25-400 mg, cited from earlier work
[5] = cited from earlier work
depression = conditions: based on HAMD score reduction; cited from earlier work
major depression = conditions: subsequent clinical trials; Paanakker et al. 1998; cited from earlier work

T1 sequence (Q63380 1-617): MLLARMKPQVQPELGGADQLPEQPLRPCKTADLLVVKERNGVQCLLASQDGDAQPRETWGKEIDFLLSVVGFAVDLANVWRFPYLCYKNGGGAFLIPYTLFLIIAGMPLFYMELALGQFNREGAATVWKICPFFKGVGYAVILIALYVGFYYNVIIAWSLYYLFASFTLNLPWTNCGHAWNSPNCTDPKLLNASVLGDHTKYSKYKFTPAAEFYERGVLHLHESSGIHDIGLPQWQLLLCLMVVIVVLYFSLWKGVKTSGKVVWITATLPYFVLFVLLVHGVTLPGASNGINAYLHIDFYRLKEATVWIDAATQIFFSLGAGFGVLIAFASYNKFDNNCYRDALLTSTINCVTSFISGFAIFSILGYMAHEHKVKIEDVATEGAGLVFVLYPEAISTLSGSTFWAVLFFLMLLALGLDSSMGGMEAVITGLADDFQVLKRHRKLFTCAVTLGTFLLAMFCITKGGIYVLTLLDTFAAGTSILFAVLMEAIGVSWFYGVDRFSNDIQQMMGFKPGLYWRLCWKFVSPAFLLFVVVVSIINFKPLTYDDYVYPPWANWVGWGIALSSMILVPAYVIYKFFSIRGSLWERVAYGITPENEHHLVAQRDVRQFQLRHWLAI

Cc1cccc2c1Oc1ccccc1C1(O)CCN(C)CC21 (single isomer, unassigned; (+)) [(+)-beloxepin]
antiallodynic effect (L5 SNL rats; 30 mg/kg IP): not statistically significant, (+)-beloxepin produced an antiallodynic effect that was comparable to that observed with (−)-beloxepin | maximal efficacy, % of the threshold of vehicle-treated rats (L5 SNL rats; 30 mg/kg IP, 14 days post surgery): 423% | antiallodynic effect over time (L5 SNL rats; 30 mg/kg IP, 14 days post surgery, FIG. 2): significant antiallodynic effects at the 30 and 60 min time points | antiallodynic effect over time (L5 SNL rats; 60 mg/kg PO, 14 days post-surgery, FIG. 4): did not produce significant antiallodynic effects at any time point | antiallodynic effect over time [1]: significant antiallodynic effect at the 30 and 60 minute time points | antinociception, % MPE values ([2]; 30 mg/kg IP, 30, 60, 120 min, FIG. 8): 10-17% | antinociceptive activity [2]: no antinociception was observed

Cc1cccc2c1Oc1ccccc1C1(O)CCN(C)CC21 (single isomer, unassigned; (-)) [(−)-beloxepin]
pIC50 (NET; [3H]norepinephrine, rat hypothalamus synaptosomes, 20 min 37° C.): 6.92 | antiallodynic effect (L5 SNL rats; 30 mg/kg IP): significant antiallodynia | antiallodynic effect over time (L5 SNL rats; 60 mg/kg PO, 7 days post-surgery, FIG. 3): significant antiallodynic effects at the 60 and 120 minute time points | antiallodynic effect over time [1]: significant antiallodynic effect at the 30 and 120 minute time point | antinociceptive activity [2]: robust antinociceptive activity at 30, 60, and 120 minutes after treatment

Cc1cccc2c1Oc1ccccc1C1(O)CCN(C)CC21 (racemic) [(±)-beloxepin, cis-1,2,3,4,4a,13b-hexahydro-2,10-dimethyldiben-[2,3:6,7]oxepino[4,5c]pyridine-4-a-ol]]
pIC50 (NET): 6.89 | affinity for noradrenergic, histaminergic and cholinergic receptors [3]: no or very weak affinity | affinity for the 5HT2C receptor (5HT2C receptor): modest affinity | antidepressant properties ([4]; acquired immobility, reserpine-induced hypothermia, conditioned avoidance): exhibit antidepressant properties | sedation, motor impairment or other side effects ([4]; preclinical depression tests): did not cause sedation, motor impairment or other untoward side effects | total duration of nocturnal REM sleep (REM sleep; EEG): decreased | REM latency (REM sleep; acutely and sub-chronically, EEG): dose-dependently prolonged REM latency | sedation or other side effects (REM sleep; human volunteers): No sedation or other side effects were observed | adverse effects ([5]; healthy volunteers, up to 800 mg/day): No important adverse effects were observed | tmax ([5]; steady-state, doses of 50 to 800 mg, healthy normal subjects): 1.17 h | fraction of patients with moderate to good response (depression): ⅔ | efficacy for the treatment of major depression (major depression): insufficient efficacy
